# Like-named read-outs stand apart in the source and are kept apart here.
# Tests used:
# [1] = tested on: HCV replicon cells Huh 9B (genotype 1b); test: 1b Replicon Assay (luciferase readout); type: cell-based; settings: Hepatitis C virus, Huh 9B replicon cells, 72 h, luciferase activity
# Procedure: HCV replicon cells Huh 9B (ReBlikon), containing the firefly luciferase-ubiquitin-neomycin phosphotransferase fusion protein and EMCV-IRES driven HCV polyprotein with cell culture adaptive mutations.
# Cells were cultured at 37° C./5% CO2 and split twice a week. G418 at 0.5 mg/ml was added to the culture medium but not the assay medium.
# The culture medium consisted of DMEM with […] glucose and Glutamax (Gibco 61965-026) supplemented with 1× non-essential amino acids (Invitrogen 11140-035), 0.5 mg/ml G418 (Invitrogen 10131-027) and 10% Australian foetal calf serum (Invitrogen 10099-141).
# Replicon cells were trypsinised and counted. Cells were diluted to 100,000 cells/ml and 100 μl used to seed one opaque white 96-well plate (for the replicon assay) and one flat-bottomed clear plate (for the tox assay) for every five compounds to be tested for IC50. Wells G12 and H12 were left empty in the clear plate as the blank. Plates were then incubated at 37° C./5% CO2 for 24 h.
# On the following day compound dilutions were prepared in medium at twice their desired final concentration in a clear round bottomed plate. All dilutions have a final DMSO concentration of 1%.
# Controls and compounds were transferred from the dilution plates to the assay plates (containing the cells) at 100 μl/well in duplicate wells.
# Exception: no compound was added to wells A1 and A2 of either plate and 100 μl of 1% DMSO was added to these instead. Plates were then incubated at 37° C./5% CO2 for 72 h.
# At the end of the incubation time, the cells in the white plate were washed in PBS (100 μL per well) and dried by tapping before addition of 204 per well of lysis buffer (25 mM tris-phosphate, 8 mM MgCl2, 1 mM DTT, 1% Triton X-100, 15% glycerol; pH to 7.8 using KH2PO4 prior to Triton X-100 and glycerol addition). Aliquots of substrate (23.5 mM beetle luciferin (Promega E1603), 26 mM ATP (Sigma O-2060) in […] Tris buffer pH 7.8) were stored at −80° C. Prior to use, required amount of luciferin was thawed and diluted 1:50 in luciferase assay buffer (20 mM Tricine (Sigma T-0377), 1.07 mM magnesium carbonate hydroxide (Sigma M-5671), 0.1 mM EDTA (Sigma E-5134), 2.67 mM MgSO4(BDH 101514Y), 33.3 mM dithiothreitol (Sigma 150460) pH 7.8).
# After 5-60 min incubation in lysis buffer at room temperature, a plate was inserted into the luminometer and 100 μl luciferase assay reagent was added by the injector of the luminometer. The signal was measured using a 1 second delay followed by a 4 second measurement programme. The IC50, the concentration of the drug required for reducing the replicon level by 50% in relation to the untreated cell control value, was calculated from the plot of the percentage reduction of the luciferase activity vs. drug concentration.
# [2] = tested on: HCV genotype 1a replicon cells Htat2ANeo; test: 1a Replicon Assay (cell-based anti-NS5a ELISA); settings: Hepatitis C virus, 72 h
# Procedure: HCV genotype la replicon cells Htat2ANeo (University of Texas), containing neomycin phosphotransferase fusion protein and EMCV-IRES driven HCV polyprotein with cell culture adaptive mutations, and control cells, Et2AN.
# Cells were cultured at 37° C./5% CO2 and split twice a week. G418 at 0.5 mg/ml and Blastocidin at 2 mg/ml were added to the culture medium but not the assay medium.
# The culture medium consisted of DMEM with […] glucose and Glutamax (Gibco 61965-026) supplemented with 1× non-essential amino acids (Invitrogen 11140-035), 0.5 mg/ml G418 (Invitrogen 10131-027), 2 mg/ml Blastocidin (PAA) and 10% is Australian foetal calf serum (Invitrogen 10099-141).
# Replicon and control cells were trypsinised and counted. Replicon cells were diluted to 90,000 cells/ml and 100 μl of this used to seed columns 2-4, […] and 10-12 of a black, clear bottom 96-well plate for every three compounds to be tested for IC50. Control cells were diluted to 60,000 cells/ml and 100 μl of this used to seed columns 1, 5 and 9 of the plate. Well H1 was left empty as the blank. Plates were then incubated at 37° C./5% CO2 for 24 h.
# On the following day compound dilutions were prepared in medium at twice their desired final concentration in a clear round bottomed plate.
# Controls and compounds were transferred from the dilution plate to the assay plates (containing the cells) at 100 μl/well in quadruplicate wells, one well containing control cells and 3 wells containing replicon cells.
# Exception: no compound was added to row H of the plate and 100 μl of 1% DMSO was added to these instead. Plates were then incubated at 37° C. with 5% CO2 for 72 h. At the end of the incubation time, any reduction in cell viability was assayed and a cell-based enzyme linked immunosorbent assay (ELISA) was performed. The media/compound was removed from all wells and replaced with 100 μl/well serum-free media and 20 μl/well Cell Titre Blue (Promega G8081). Following incubation at 37° C./5% CO2 for 2 h plates were read on a microplate fluorometer (Molecular Devices) using an excitation of 570 nm and an emission of 590 nm The TD50, the concentration of drug required to reduce 50% of Cell Titre Blue relative to the DMSO controls, was calculated by plotting the fluorescence at 590 nm after substraction of background against drug concentration.
# The media/Cell Titre Blue was removed and plates washed in PBS and gently tapped dry before addition of 50 μL per well of 75% acetone/25% methanol mixture for 3 minutes. The fixative was then discarded and wells were washed with PBS before addition of 100 μl/well of blocking solution (2% non-fat dry milk and 0.05% Tween-20 in 0.85% NaCl). Plates were then incubated at 37° C. in a shaking incubator for 60 min. Blocking solution was discarded and 50 μl of mouse anti-NS5a antibody (Virostat 1877) at 1:100 dilution in blocking buffer was added to all wells. Plates were incubated at 37° C. in a shaking incubator for 90 min Antibody was then discarded and plates were washed 4 times by immersion in 0.85% NaCl/0.05% Tween-20. After washing plates were tapped dry gently and 50 μl of secondary antibody (Dako P0260 Rabbit anti-mouse horseradish peroxidase) at 1:1000 dilution in blocking buffer was added to the wells. Plates were incubated at 37° C. in a shaking incubator for 60 min. Antibody was discarded and plates were washed 6 times by immersion in 0.85% NaCl/0.05% Tween-20 and once in PBS. Finally, 50 μl of substrate (SigmaFast ortho-phenylene diamine dihydrochloride (OPD)) was added per well and the colorimetric reaction was allowed to proceed in the dark for 5 to 15 minutes depending on the strength or the signal. The reaction was stopped by addition of 25 μl/well of 20% sulphuric acid. Plates were read on the SpectraMax microplate reader at 490 nm fixed wavelength. […]
# [3] = read-out: pIC50 1b Replicon (converted)
# [4] = read-out: pIC50 1a Replicon (converted)
Structure (SMILES),IC50 ([1]; read-out: HCV IC50 1b Replicon) [nM],"IC50 [1, 3] [nM]",IC50 ([2]; read-out: HCV IC50 Elisa 1a) [nM],"IC50 [2, 4] [nM]"
"CCCS(=O)(=O)N1CCN(Cc2ccc(NC(=O)c3ccc(-c4ccc(-c5cnc([C@@H]6CCCN6C(=O)[C@H](C)NC(=O)OC)[nH]5)cc4)cc3)cc2)CC1 [Example 41, Methyl N-[(1S)-1-methyl-2-oxo-2-[(2S)-2-[5-[4-[4-[[4-[(4-propylsulfonylpiperazin-1-yl)methyl]phenyl]carbamoyl]phenyl]phenyl]-1H-imidazol-2-yl]pyrrolidin-1-yl]ethyl]carbamate]",1.15,1.15,47,46.8
"CN(C)[C@@H](C(=O)N1CCC[C@H]1c1ncc(-c2cccc(-c3ccc(C(=O)Nc4ccc(CN5CCS(=O)(=O)CC5)cc4)cc3)c2)[nH]1)c1ccccc1 [Example 39, 4-[3-[2-[(2S)-1-[(2R)-2-(dimethylamino)-2-phenyl-acetyl]pyrrolidin-2-yl]-1H-imidazol-5-yl]phenyl]-N-[4-[(1,1-dioxo-1,4-thiazinan-4-yl)methyl]phenyl]benzamide]",4.81,4.79,1100,1100
"CCCS(=O)(=O)N1CCN(Cc2ccc(NC(=O)c3ccc(-c4ccc(-c5cnc([C@@H]6CCCN6C(=O)[C@@H](c6ccccc6)N(CC)CC)[nH]5)cc4)cc3)cc2)CC1 [Example 44, 4-[4-[2-[(2S)-1-[(2R)-2-(diethylamino)-2-phenyl-acetyl]pyrrolidin-2-yl]-1H-imidazol-5-yl]phenyl]-N-[4-[(4-propylsulfonylpiperazin-1-yl)methyl]phenyl]benzamide]",0.01,0.0145,50.5,50.1
"CN(C)[C@@H](C(=O)N1CCCC[C@H]1c1ncc(-c2ccc(-c3ccc(C(=O)Nc4ccc(CN5CCS(=O)(=O)CC5)cc4)cc3)cc2)[nH]1)c1ccccc1 [Example 53, 4-[4-[2-[(2S)-1-[(2R)-2-(dimethylamino)-2-phenyl-acetyl]-2-piperidyl]-1H-imidazol-5-yl]phenyl]-N-[4-[(1,1-dioxo-1,4-thiazinan-4-yl)methyl]phenyl]benzamide]",0.82,0.813,324,324
"CCN(CC)[C@@H](C(=O)N1CCC[C@H]1c1ncc(-c2cccc(-c3ccc(C(=O)Nc4ccc(CN5CCS(=O)(=O)CC5)cc4)cc3)c2)[nH]1)c1ccccc1 [Example 38, 4-[3-[2-[(2S)-1-[(2R)-2-(diethylamino)-2-phenyl-acetyl]pyrrolidin-2-yl]-1H-imidazol-5-yl]phenyl]-N-[4-[(1,1-dioxo-1,4-thiazinan-4-yl)methyl]phenyl]benzamide]",2.87,2.88,314,316
"CC(C)(C)OC(=O)N[C@H](C(=O)N1CCCC[C@H]1c1ncc(-c2ccc(-c3ccc(C(=O)Nc4ccc(CN5CCS(=O)(=O)CC5)cc4)cc3)cc2)[nH]1)c1ccccc1 [Example 52, tert-Butyl N-[(1S)-2-[(2S)-2-[5-[4-[4-[[4-[(1,1-dioxo-1,4-thiazinan-4-yl)methyl]phenyl]carbamoyl]phenyl]phenyl]-1H-imidazol-2-yl]-1-piperidyl]-2-oxo-1-phenyl-ethyl]carbamate]",0.41,0.407,185,186
"CCCS(=O)(=O)N1CCN(Cc2ccc(NC(=O)c3ccc(-c4ccc(-c5cnc([C@@H]6CCCN6C(=O)[C@@H](NC(=O)OC)c6ccccc6)[nH]5)cc4)cc3)cc2)CC1 [Example 42, Methyl N-[(1S)-2-oxo-1-phenyl-2-[(2S)-2-[5-[4-[4-[[4-[(4-propylsulfonylpiperazin-1-yl)methyl]phenyl]carbamoyl]phenyl]phenyl]-1H-imidazol-2-yl]pyrrolidin-1-yl]ethyl]carbamate]",0.05,0.0537,97.4,97.7
"CCCS(=O)(=O)N1CCN(Cc2ccc(NC(=O)c3ccc(-c4ccc(-c5cnc([C@@H]6CCCN6C(=O)[C@@H](c6ccccc6)N(C)C)[nH]5)cc4)cc3)cc2)CC1 [Example 45, 4-[4-[2-[(2S)-1-[(2R)-2-(dimethylamino)-2-phenyl-acetyl]pyrrolidin-2-yl]-1H-imidazol-5-yl]phenyl]-N-[4-[(4-propylsulfonylpiperazin-1-yl)methyl]phenyl]benzamide]",0.03,0.0263,79.5,79.4
"CC(C)(C)OC(=O)NCC(=O)N1CCC[C@H]1c1ncc(-c2ccc(-c3ccc(C(=O)Nc4ccc(CN5CCS(=O)(=O)CC5)cc4)cc3)cc2)[nH]1 [Example 12, tert-Butyl N-[2-[(2S)-2-[5-[4-[4-[[4-[(1,1-dioxo-1,4-thiazinan-4-yl)methyl]phenyl]carbamoyl]phenyl]phenyl]-1H-imidazol-2-yl]pyrrolidin-1-yl]-2-oxo-ethyl]carbamate]",106,105,164,162
"CCCS(=O)(=O)N1CCN(Cc2ccc(NC(=O)c3ccc(-c4ccc(-c5cnc([C@@H]6CCCN6C(=O)[C@H](NC(=O)OC)c6ccccc6)[nH]5)cc4)cc3)cc2)CC1 [Example 43, Methyl N-[(1R)-2-oxo-1-phenyl-2-[(2S)-2-[5-[4-[4-[[4-[(4-propylsulfonylpiperazin-1-yl)methyl]phenyl]carbamoyl]phenyl]phenyl]-1H-imidazol-2-yl]pyrrolidin-1-yl]ethyl]carbamate]",0.05,0.055,77.7,77.6
